# ChEMBL document CHEMBL1201862, “PubChem BioAssay data set” (2004)
# pIC50: −log10 of the molar value. The source made the active and inactive calls.
# Tests used:
# [1] = Luminescence Cell-Based Dose Response HTS to Identify Inhibitors of 5'UTR Stem-Loop Driven Prion Protein mRNA Translation in H4 Neuroglioblastoma Cells. [Related pubchem assays: 1827 (Project Summary), 1813 (Primary HTS)]; assay type: functional
# Paired box protein Pax-8 = Paired box protein Pax-8 (Homo sapiens, UniProt Q06710); test: PAX8 transcriptional activity inhibition in RMG-I – RMG-I cells, luciferase, cherry-pick, dose response (AID 687027); assay type: functional, cell-based;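 note: luciferase reporter driven by Pax8 target thyroperoxidase promoter measured by SteadyGlo luminescence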
# Paired box protein Pax-8, sequence (Q06710 whole entry): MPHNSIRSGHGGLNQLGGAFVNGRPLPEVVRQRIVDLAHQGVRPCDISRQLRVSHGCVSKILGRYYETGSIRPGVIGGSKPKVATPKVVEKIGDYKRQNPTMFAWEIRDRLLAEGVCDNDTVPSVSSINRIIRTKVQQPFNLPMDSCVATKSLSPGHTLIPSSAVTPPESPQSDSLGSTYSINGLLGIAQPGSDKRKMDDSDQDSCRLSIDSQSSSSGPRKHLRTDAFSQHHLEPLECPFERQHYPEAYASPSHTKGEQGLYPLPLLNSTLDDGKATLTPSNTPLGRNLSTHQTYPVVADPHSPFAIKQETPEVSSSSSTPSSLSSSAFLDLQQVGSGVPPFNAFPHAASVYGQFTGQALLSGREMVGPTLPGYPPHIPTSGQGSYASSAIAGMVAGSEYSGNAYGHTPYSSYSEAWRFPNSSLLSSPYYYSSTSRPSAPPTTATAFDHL
# BJ [2] = test: BJ-TERT fibroblast viability loss – cell-based, RAS-independent, luminescence, dose response (AID 1933); assay type: functional; conditions: Homo sapiens
# Mu-type opioid receptor = Mu-type opioid receptor (Homo sapiens, UniProt P35372); test: HTS Image-Based Screen for Agonists of the MOR Receptor. [Related pubchem assays (depositor defined):AID1777, AID1785, AID1786, AID2133]; assay type: functional;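 note: imaging of beta-arrestin GFP recruitment into spots after receptor activation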
# Mu-type opioid receptor, sequence (P35372 whole entry): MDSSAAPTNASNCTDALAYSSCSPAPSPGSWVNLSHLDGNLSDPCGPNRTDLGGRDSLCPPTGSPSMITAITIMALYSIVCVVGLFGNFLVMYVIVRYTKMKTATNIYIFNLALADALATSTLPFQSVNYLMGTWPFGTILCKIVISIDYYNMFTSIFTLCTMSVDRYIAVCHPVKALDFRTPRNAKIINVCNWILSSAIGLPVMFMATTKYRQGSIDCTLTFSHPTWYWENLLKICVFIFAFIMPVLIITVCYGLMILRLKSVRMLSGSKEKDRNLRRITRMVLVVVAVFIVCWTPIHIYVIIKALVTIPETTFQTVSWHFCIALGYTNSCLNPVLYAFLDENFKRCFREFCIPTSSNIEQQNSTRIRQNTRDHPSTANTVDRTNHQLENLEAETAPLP
# [3] = molecular target: T1, Delta-type opioid receptor (Homo sapiens, UniProt P41143); test: HTS Image-Based Screen for Agonists of the DOR Receptor. [Related pubchem assays (depositor defined):AID1777, AID1786, AID2133]; assay type: functional
# T1 sequence (P41143 whole entry): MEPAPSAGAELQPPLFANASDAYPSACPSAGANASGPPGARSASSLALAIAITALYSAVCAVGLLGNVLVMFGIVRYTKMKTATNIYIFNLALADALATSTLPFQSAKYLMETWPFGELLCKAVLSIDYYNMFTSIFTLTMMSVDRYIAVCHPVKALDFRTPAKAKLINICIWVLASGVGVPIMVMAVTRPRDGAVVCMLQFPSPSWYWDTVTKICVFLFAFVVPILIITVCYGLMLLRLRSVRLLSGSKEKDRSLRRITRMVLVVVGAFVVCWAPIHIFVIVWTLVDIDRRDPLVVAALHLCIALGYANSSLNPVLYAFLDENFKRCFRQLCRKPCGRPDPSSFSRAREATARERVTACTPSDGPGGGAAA
# BJ [4] = test: cells; assay type: functional, cell-based; conditions: Homo sapiens
# BJ [5] = test: BJ-TERT-LT-ST fibroblast viability loss – cell-based, RAS-independent, luminescence, dose response (AID 1935); assay type: functional; conditions: Homo sapiens;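 note: BJ fibroblasts immortalized with TERT plus LT and ST oncogenes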
# [6] = molecular target: T1, Delta-type opioid receptor; test: HTS Image-Based Screen for Antagonists of the DOR Receptor. [Related pubchem assays (depositor defined):AID1777, AID1785, AID1786, AID2133]; assay type: functional
# [7] = loss of viability in HepG2 cells – cell-based, CellTiter-Glo, cherry-picked, cytotoxicity control for Shn3 inhibitor project, dose response (AID 624134); assay type: functional
# [8] = reduction of Shn3 3'UTR-driven luciferase in osteoblasts – cell-based, Clone20 osteoblasts, firefly luciferase, cherry-picked, dose response (AID 624132); assay type: functional;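 note: firefly luciferase luminescence from reporter carrying the Shn3 3'UTR in osteoblasts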
# [9] = molecular target: T2, Kappa-type opioid receptor (Homo sapiens, UniProt P41145); assay type: functional
# T2 sequence (P41145 whole entry): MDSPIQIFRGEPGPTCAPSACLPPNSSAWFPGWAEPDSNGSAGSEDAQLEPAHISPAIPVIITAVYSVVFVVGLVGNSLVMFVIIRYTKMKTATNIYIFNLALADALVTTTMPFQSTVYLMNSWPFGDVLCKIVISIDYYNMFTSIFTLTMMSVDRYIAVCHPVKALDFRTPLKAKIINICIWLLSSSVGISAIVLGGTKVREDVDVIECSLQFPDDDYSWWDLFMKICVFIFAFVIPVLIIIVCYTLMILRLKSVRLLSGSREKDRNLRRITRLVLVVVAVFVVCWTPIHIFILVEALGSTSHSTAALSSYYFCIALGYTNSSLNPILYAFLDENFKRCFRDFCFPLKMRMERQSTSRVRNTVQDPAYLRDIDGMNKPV
# HEK293 [10] = test: cells; assay type: functional, cell-based; conditions: Homo sapiens
# [11] = molecular target: T3, Microphthalmia-associated transcription factor (Homo sapiens, UniProt O75030); test: reducers of TRPM1 reporter luminescence, concentration series – cell-based, SK-MEL-5, cherry-picked, set 3, MITF inhibitor project, dose response (AID 493073); assay type: functional;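 note: SK-MEL-5 melanoma cells with luciferase driven by the MITF target TRPM1 promoter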
# T3 sequence (O75030 whole entry): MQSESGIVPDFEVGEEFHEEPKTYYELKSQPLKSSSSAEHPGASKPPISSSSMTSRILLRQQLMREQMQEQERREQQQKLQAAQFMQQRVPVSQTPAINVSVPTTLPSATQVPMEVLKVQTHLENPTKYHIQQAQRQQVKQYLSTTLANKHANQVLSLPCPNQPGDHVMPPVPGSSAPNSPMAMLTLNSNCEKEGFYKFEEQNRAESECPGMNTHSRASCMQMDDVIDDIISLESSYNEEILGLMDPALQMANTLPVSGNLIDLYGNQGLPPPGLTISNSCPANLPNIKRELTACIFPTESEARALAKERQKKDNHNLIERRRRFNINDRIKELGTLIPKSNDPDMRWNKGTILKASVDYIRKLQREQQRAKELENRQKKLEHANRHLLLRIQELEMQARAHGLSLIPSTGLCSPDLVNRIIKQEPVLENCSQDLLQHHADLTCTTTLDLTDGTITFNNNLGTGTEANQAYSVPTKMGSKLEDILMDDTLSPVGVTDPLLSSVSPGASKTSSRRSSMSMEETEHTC
# Beta-galactosidase = Beta-galactosidase (Escherichia coli, UniProt Q8VNN2); assay type: functional
# Beta-galactosidase, sequence (Q8VNN2 whole entry): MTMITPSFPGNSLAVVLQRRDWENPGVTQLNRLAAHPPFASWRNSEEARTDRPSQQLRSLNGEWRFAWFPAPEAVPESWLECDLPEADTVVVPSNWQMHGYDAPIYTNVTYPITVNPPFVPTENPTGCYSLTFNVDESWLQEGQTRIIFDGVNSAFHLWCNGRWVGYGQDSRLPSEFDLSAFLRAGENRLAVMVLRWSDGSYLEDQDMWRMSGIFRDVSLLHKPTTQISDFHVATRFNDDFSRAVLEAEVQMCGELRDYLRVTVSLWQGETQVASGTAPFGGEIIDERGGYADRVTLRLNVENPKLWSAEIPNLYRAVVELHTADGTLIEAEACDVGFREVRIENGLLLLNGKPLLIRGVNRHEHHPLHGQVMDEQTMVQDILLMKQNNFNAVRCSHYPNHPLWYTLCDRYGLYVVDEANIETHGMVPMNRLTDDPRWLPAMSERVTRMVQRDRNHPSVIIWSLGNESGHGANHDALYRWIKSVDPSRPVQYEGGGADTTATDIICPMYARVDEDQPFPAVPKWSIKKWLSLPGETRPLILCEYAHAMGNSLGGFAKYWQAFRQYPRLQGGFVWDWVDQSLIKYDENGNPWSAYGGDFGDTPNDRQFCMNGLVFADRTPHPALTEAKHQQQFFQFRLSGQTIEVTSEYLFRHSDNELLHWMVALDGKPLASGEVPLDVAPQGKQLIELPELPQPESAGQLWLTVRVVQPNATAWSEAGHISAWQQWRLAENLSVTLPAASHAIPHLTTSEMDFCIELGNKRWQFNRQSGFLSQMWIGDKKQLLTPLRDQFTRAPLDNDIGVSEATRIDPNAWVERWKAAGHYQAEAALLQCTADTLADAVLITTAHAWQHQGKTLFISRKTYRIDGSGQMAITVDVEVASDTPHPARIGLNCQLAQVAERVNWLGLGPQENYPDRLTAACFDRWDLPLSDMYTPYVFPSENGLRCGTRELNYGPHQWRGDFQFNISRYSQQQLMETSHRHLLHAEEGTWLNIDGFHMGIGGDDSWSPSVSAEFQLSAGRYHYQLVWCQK
# [12] = molecular target: T2, Kappa-type opioid receptor; assay type: functional; remark: listed apart in the source
# Beta Lactamase = Beta Lactamase (Pseudomonas aeruginosa, UniProt Q932Y6); test: BLA reporter interference, concentration series – BLA reporter cells, FRET fluorescence, artefact control for NOD2-RIPK2 interaction inhibitor project, dose response (AID 651552); assay type: functional, cell-based
# Beta Lactamase, sequence (Q932Y6 whole entry): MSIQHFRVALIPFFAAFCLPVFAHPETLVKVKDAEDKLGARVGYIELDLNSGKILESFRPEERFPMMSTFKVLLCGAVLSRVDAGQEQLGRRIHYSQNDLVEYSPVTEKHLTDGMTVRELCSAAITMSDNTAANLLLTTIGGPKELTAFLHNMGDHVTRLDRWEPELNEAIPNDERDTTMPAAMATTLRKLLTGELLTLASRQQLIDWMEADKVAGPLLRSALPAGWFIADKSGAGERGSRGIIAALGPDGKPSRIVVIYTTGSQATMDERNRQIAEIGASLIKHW
# [13] = DRD fibroblast viability loss – cell-based, non-viral oncogenic, luminescence, dose response (AID 1934); assay type: functional; conditions: Homo sapiens
# [14] = alpha-synuclein stem-loop luciferase translation blockers – H4 neuroglioma cells, luminescence, confirmation (AID 1988); assay type: functional, cell-based
# HEK293 [15] = test: inhibition of NOD1-driven NF-kB reporter – cell-based, luminescence, uHTS, primary screen (AID 1578); assay type: functional; conditions: Homo sapiens
# HEK293 [16] = test: NOD2 signaling inhibitors in MDP-stimulated cells, cell-based, uHTS, luminescence (AID 2001); assay type: functional; conditions: Homo sapiens
# [17] = non-specific 3'UTR reporter inhibition in Clone20-Shn3RL – cell-based, Renilla luciferase, cherry-picked, counter-screen for Shn3 inhibitor project, dose response (AID 624133); assay type: functional
# HEK293 [18] = test: cells; assay type: functional, cell-based; conditions: Homo sapiens; remark: listed apart in the source
# [19] = Fluorescence-based cell-based high throughput dose response assay for inhibitors of the interaction of nucleotide-binding oligomerization domain containing 2 (NOD2) and the receptor-interacting serine-threonine kinase 2 (RIPK2).; assay type: functional; conditions: Homo sapiens
# [20] = luciferase reporter signal suppression in cells – H4 neuroglioma cells, luminescence, dose response (AID 1990); assay type: functional, cell-based
# Protein RecA = molecular target: T4, Protein RecA (Mycobacterium tuberculosis, UniProt P9WHJ3); test: Fluorescence Cell-Free Homogeneous Dose Retest to Identify Inhibitors of RecA-Intein Splicing Activity. [Related pubchem assays (depositor defined):AID2097, AID2223, AID489010, AID492950]; assay type: functional
# T4 sequence (P9WHJ3 whole entry): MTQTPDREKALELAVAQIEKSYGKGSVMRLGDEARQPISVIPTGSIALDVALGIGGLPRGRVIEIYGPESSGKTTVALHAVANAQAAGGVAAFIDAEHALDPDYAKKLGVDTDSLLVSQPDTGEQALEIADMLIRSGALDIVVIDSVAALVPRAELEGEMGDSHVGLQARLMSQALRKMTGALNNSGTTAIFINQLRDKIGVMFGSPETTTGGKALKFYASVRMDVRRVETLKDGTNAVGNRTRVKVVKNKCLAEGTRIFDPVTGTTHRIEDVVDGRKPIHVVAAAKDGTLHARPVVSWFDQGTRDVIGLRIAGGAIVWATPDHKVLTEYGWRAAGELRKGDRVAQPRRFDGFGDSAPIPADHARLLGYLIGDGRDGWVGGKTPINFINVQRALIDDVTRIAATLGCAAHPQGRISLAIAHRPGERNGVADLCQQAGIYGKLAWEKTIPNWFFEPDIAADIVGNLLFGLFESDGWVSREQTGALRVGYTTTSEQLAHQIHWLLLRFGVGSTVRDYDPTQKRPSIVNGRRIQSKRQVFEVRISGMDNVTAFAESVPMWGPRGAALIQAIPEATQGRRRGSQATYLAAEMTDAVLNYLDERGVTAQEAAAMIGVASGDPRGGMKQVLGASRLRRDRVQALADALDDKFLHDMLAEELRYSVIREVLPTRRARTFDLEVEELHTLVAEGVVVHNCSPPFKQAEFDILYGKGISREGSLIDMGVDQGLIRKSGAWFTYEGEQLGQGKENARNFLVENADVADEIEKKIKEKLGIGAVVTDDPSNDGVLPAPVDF
# X-box-binding protein 1 = X-box-binding protein 1 (Homo sapiens, UniProt P17861); assay type: functional, Cricetulus griseus;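 note: confirmatory dose-response counter-screen serving a CHOP assay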
# X-box-binding protein 1, sequence (P17861 whole entry): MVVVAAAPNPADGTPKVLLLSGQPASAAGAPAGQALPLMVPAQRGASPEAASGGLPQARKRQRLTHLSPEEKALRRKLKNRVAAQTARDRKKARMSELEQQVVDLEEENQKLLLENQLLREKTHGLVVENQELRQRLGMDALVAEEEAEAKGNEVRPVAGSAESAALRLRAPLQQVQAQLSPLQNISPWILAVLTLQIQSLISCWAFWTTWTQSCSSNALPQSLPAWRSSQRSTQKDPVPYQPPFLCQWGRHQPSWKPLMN
# [21] = molecular target: T5, Replicative DNA helicase DnaB (Mycobacterium tuberculosis, UniProt P9WMR3); test: DnaB intein splicing inhibitors, dose response, biochemical, cell-free fluorescence (AID 449749); assay type: functional
# T5 sequence (P9WMR3 whole entry): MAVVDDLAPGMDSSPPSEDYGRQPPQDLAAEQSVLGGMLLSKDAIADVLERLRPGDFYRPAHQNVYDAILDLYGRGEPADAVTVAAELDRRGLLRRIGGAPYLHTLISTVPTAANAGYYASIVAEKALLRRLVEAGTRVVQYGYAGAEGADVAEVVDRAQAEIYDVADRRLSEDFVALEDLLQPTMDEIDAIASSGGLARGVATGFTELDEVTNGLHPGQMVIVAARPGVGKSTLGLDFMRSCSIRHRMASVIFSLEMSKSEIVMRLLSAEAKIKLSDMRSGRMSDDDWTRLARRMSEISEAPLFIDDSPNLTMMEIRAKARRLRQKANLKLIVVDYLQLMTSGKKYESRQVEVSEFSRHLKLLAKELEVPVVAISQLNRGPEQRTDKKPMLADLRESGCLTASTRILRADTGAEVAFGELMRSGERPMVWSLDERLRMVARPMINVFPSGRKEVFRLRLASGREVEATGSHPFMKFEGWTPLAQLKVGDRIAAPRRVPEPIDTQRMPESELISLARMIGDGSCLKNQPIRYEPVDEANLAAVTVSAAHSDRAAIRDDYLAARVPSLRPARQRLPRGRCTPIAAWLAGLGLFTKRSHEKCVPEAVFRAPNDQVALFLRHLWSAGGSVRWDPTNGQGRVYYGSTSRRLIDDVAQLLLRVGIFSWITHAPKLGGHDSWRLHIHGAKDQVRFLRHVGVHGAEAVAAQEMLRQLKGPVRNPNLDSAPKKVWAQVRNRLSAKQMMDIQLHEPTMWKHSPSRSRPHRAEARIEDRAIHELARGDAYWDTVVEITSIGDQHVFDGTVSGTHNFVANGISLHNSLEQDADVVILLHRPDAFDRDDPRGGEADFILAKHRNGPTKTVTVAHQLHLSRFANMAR
# [22] = fluconazole-exposed Candida albicans growth modulators – fluorescence, retest, confirmation (AID 2467); assay type: functional, cell-based
# [23] = NIH-3T3 fibroblast cytotoxicity, dose response, cytotoxicity control, cell-based, fluorescence, Alamar Blue, secondary assay (AID 2327); assay type: functional;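 note: NIH-3T3 mouse fibroblasts cultured with fluconazole at 8 µg/mL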
# Cytochrome P450 3A4 = Cytochrome P450 3A4 (Homo sapiens, UniProt P08684);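 note: CYP3A4 tested as one member of a cytochrome P450 panel screen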
# Cytochrome P450 3A4, sequence (P08684 whole entry): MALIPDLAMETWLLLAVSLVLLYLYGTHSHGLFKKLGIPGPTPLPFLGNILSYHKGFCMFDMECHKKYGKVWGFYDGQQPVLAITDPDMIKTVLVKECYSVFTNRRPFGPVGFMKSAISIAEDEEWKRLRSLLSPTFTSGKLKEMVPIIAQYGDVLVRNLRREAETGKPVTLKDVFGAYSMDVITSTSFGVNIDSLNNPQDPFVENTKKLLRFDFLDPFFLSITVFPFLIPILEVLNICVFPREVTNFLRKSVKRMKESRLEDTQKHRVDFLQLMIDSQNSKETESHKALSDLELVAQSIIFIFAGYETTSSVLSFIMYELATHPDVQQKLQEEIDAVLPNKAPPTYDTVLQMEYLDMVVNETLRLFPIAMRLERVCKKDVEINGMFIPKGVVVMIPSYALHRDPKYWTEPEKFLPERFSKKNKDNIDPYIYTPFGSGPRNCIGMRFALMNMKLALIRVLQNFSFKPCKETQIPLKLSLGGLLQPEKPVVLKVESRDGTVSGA
# Cytochrome P450 2D6 = Cytochrome P450 2D6 (Homo sapiens, UniProt P10635);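 note: CYP2D6 member of a cytochrome P450 panel assay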
# Cytochrome P450 2D6, sequence (P10635 whole entry): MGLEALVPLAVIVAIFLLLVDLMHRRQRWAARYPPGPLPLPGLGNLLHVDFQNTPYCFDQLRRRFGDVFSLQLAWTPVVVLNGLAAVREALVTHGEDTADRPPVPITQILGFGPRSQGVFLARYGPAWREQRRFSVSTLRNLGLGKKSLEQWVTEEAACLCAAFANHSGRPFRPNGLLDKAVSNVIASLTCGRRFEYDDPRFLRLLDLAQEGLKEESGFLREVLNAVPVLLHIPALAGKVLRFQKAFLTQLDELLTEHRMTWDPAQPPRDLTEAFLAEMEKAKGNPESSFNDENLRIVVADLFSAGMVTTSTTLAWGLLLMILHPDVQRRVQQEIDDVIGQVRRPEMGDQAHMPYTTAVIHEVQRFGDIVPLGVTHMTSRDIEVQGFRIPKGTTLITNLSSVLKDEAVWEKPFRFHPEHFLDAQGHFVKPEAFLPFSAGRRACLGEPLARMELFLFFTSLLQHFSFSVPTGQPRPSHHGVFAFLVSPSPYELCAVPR
# [24] = molecular target: Eukaryotic translation initiation factor 4E (Mus musculus, UniProt P63073); test: blockers of eIF4G binding by eIF4E – biochemical, TR-FRET, dose response (AID 855); assay type: functional;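 note: potency for disrupting eIF4E binding to eIF4GI seen as loss of FRET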
# Eukaryotic translation initiation factor 4E, sequence (P63073 whole entry): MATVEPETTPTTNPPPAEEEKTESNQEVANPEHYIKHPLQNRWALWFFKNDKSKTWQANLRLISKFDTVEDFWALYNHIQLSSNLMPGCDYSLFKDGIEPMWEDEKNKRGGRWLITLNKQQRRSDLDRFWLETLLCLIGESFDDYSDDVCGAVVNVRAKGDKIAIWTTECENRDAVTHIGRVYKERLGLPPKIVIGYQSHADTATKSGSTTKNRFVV
# Cytochrome P450 2C9 = Cytochrome P450 2C9 (Homo sapiens, UniProt P11712)
# Cytochrome P450 2C9, sequence (P11712 whole entry): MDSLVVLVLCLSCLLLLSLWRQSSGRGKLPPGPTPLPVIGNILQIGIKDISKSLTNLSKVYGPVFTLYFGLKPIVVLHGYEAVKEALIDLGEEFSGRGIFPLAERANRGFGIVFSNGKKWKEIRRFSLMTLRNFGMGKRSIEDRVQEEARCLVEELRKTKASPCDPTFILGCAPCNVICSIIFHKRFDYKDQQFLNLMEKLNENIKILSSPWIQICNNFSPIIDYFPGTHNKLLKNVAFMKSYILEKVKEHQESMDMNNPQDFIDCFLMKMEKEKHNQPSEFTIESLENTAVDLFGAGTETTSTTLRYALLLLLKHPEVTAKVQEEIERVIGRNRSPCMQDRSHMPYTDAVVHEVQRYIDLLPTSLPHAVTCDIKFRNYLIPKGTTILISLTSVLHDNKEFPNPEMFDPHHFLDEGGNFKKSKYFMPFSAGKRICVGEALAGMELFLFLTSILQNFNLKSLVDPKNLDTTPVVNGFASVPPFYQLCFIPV
structure (smiles),measurement,setting,value
COCCN(CC(=O)NC1CCCCC1)C(=O)/C=C/C(=O)c1ccc(OC)cc1O,EC50,[1],9.57 µM (active)
same,AC50,Paired box protein Pax-8,5.38 µM (active)
same,EC50,BJ [2],2.71 µM (inconclusive)
same,EC50,Mu-type opioid receptor,> 32 µM (inactive)
same,EC50,[3],> 32 µM (inactive)
same,EC50,BJ [4],9.79 µM (inconclusive)
same,EC50,BJ [5],1.62 µM (inconclusive)
same,IC50,[6],> 32 µM (inactive)
same,AC50,[7],13.7 µM (active)
same,AC50,[8],2.58 µM (active)
same,IC50,[9],7.13 µM (active)
same,IC50,HEK293 [10],> 20 µM (inactive)
same,AC50,[11],5.48 µM (active)
same,EC50,Beta-galactosidase,> 31.5 µM (inactive)
same,pIC50,[12],4.79
same,IC50,Beta Lactamase,17.8 µM (inactive)
same,EC50,[13],2.74 µM (inconclusive)
same,EC50,[14],> 120 µM (not active)
same,EC50,HEK293 [15],> 20 µM (inactive)
same,IC50,HEK293 [16],> 20 µM (inactive)
same,AC50,[17],9.9 µM (active)
same,IC50,HEK293 [18],16.6 µM (active)
same,IC50,[19],3.11 µM (active)
same,EC50,[20],8.52 µM (active)
Cc1cc(-c2[nH]nc3c2C(c2ccc(Cl)cc2)C(C#N)=C(N)O3)c(C)s1 (stereo not drawn),EC50,Protein RecA,3.42 µM (active)
same,Absolute IC50 (XBP1),X-box-binding protein 1,10 µM
same,AC50,[21],3.07 µM (active)
CC(=O)Nc1ccc(N2CCCCC2)c(C(=O)Nc2cccc(C)c2)c1,EC50,[22],> 38 µM (not active)
same,EC50,[23],50.5 µM (active)
same,AC50,Cytochrome P450 3A4,22.4 µM (inconclusive)
same,AC50,Cytochrome P450 2D6,17.8 µM (inconclusive)
same,IC50,[24],> 64 µM (inactive)
same,AC50,Cytochrome P450 2C9,12.6 µM (inconclusive)
